In US20250170116A1, “PHARMACEUTICAL COMPOSITION FOR PREVENTING AND/OR TREATING RENAL DISEASE” (priority 2022, published 2025):

What was measured:
[1] = system: rats with puromycin aminonucleoside-induced kidney injury (focal segmental glomerulosclerosis model rats); test: Test Example 3: action of Compound 011 in PAN-treated rats with more severe symptoms for a longer period; assay type: in vivo, S.D. rats
Procedure: The action of Compound 011 on PAN-treated rats with more severe symptoms for a longer period of time than in Test Example 1 was studied. Eight-week-old S.D. rats (male, 8 rats) were intraperitoneally injected with 120 mg/kg of puromycin aminonucleoside (PAN) under anesthesia. Then, one month later, PAN was again injected intraperitoneally at 60 mg/kg. PAN creates focal segmental glomerulosclerosis model rats by disrupting glomerular basement membrane cells (podocytes) (Kim, J Mol Med, 2018, 96, 631-644). Furthermore, these model rats are known to develop chronic kidney damage accompanied by lymphocyte and macrophage infiltration (Ornellas, Sci Rep, 2019, 9:19604). The test compound (Compound 011) was mixed with food and administered (10 mg/kg/day) on or after the third day after the PAN injection. The rats were kept under a 12-hour light-dark cycle (lights on from 7:00 am to 7:00 pm, and lights off from 7:00 pm to 7:00 am the next morning), and food and water were provided ad libitum (PAN+011 group). Chronic proteinuria may sometimes occur after the first administration of PAN without a second administration of PAN. […] Two months after the first administration of PAN, the kidneys of the rats were removed, their sizes were visually observed, and their weights were measured. The number of kidney samples was 4 for the PAN group and was 6 for the PAN+011 group. Subsequently, the kidneys were fixed with 4% paraformaldehyde/PBS and then paraffin-embedded, and sections were prepared. The sections were treated with PAS (periodic acid-Schiff) staining, and PAS-stained positive areas (inflammatory cell areas) were evaluated. To extract RNA, a portion of tissue around the surface layer of the kidney was quickly frozen to −80° C. cDNA was produced from RNA extracted from the tissue by reverse transcriptase, and gene expression was evaluated by real-time PCR. TB Green Premix Ex Taq II (Takara Bio Inc.) was used as a reagent for the reaction, and a QuantStudio 5 system (Thermo Fisher) was used for the analysis.

[2] = system: rats with puromycin aminonucleoside-induced kidney injury (focal segmental glomerulosclerosis / minimal change nephrotic syndrome model rats); test: Test Example 1: action of Compound 011 in rats with puromycin aminonucleoside-induced kidney injury; assay type: in vivo, S.D. rats; settings: for urinary protein levels lower compared with PAN group: Bradford method
Procedure: Eight-week-old S.D. rats (male, 8 rats) were intraperitoneally injected with 120 mg/kg of puromycin aminonucleoside (PAN) under anesthesia (day 0). PAN damages glomerular basement membrane cells (podocytes) and induces glomerular injury in rats. The PAN-treated rats were focal segmental glomerulosclerosis model rats and minimal change nephrotic syndrome model rats. The test compound (Compound 011) was mixed with food and administered (10 mg/kg/day) on or after the third day after the PAN injection. The rats were kept under a 12-hour light-dark cycle (lights on from 7:00 am to 7:00 pm, and lights off from 7:00 pm to 7:00 am the next morning), and food and water were provided ad libitum (PAN+011 group). Urine was collected on day 0, i.e., the day of PAN administration, and on days 3, 10, 20, and 27 after PAN administration. Urine was collected by placing the rats in metabolic cages for 17 hours (5:00 pm to 10:00 am the next morning). Separately, as controls, a group without PAN treatment and without test compound administration (control group, male, 3 animals), a group without PAN treatment but with test compound administration (control+011 group, male, 5 animals), and a group with PAN treatment but without test compound administration (PAN group, male, 9 animals) were also tested in the same manner. The urinary protein levels were measured by using the Bradford method. The serum albumin levels were measured by using an improved BCP (bromocresol purple) method. In the PAN group, the number of serum samples was 8 because one animal from which a serum sample was unable to be collected was excluded. On day 27 after PAN administration, the left kidney of each rat was removed, the size was visually observed, and the weight was measured. The number of left kidney samples of the control group was 3 because the left kidneys of three animals in this group were all removed and weighed. The number of left kidney samples of the control+011 group was 4 because the left kidneys of 4 of the 5 animals in this group were removed and weighed. The number of left kidney samples of the PAN group was 7 because the left kidneys of 7 of the 9 animals in this group were removed and weighed. The number of left kidney samples of the PAN+011 group was 7 because the left kidneys of 7 of the 8 animals in this group were removed and weighed.

[3] = PAN+011 group vs PAN group, two months after PAN
[4] = PAN+011 group, after 2 months, 10 mg/kg/day mixed with food, *p<0.03

## O=C(O)c1cnc(N2CCN(c3noc4cccc(C(F)(F)F)c34)CC2)c(Cl)c1 [Compound 011, 5-Chloro-6-(4-(4-(trifluoromethyl)benzo[d]isoxazol-3-yl)piperazin-1-yl)nicotinic acid]
[1]; [3]
  CD4 expression level in kidney tissue (quantitative PCR, relative to GAPDH): significantly decreased
  CD86 expression level in kidney tissue (quantitative PCR, relative to GAPDH): significantly decreased
  TGF-β expression level in kidney tissue (quantitative PCR, relative to GAPDH): significantly decreased
[1]; [4]
  left kidney weight per rat body weight, decrease compared with PAN group: 29%
  right kidney weight, decrease compared with PAN group: 28%
[1]; kidney sections two months after PAN, on average
  suppression of formation of tertiary lymphoid tissue-like structures (PAS-stained positive area): ≥ 50%
[2]; PAN+011 group vs PAN group, day 10 after PAN, 10 mg/kg/day mixed with food
  urinary protein levels lower compared with PAN group: 38%
[2]; PAN+011 group vs PAN group, day 27, improved BCP method, **p<0.01
  serum albumin levels: almost no PAN-treatment-induced decrease in serum albumin levels
[2]; PAN+011 group vs PAN group, day 27 after PAN
  left kidney weight per rat body weight: smaller increase in kidney weights
[2]; PAN+011 group vs PAN group, day 27 after PAN, 10 mg/kg/day mixed with food
  urinary protein levels lower compared with PAN group: 48%
[2]; rats without PAN treatment, 10 mg/kg/day mixed with food
  urinary protein levels, control+011 group vs control group: No difference
